According to ChEMBL document CHEMBL1201862, “PubChem BioAssay data set” (2004):
Activity calls are given as the source filed them.

Tests used:
Staphylococcus aureus = assay: Inhibitors of Bacterial Quorum Sensing Structure Activity Relationship (SAR) Analysis: Dose Response Assay. [Related pubchem assays: 700, 527 ]; format: functional, organism-based
[1] = molecular target: Peroxisome proliferator-activated receptor gamma/Nuclear receptor corepressor 2 (Homo sapiens, UniProt P37231+Q9Y618); format: functional
Bcl-2-like protein 10 = molecular target: T1, Bcl-2-like protein 10 (Homo sapiens, UniProt Q9HD36); assay: Biochemical TR3 FP assay of Bcl-B inhibitor potency, EC50 (AID 1243); format: functional
T1 sequence (Q9HD36 whole entry): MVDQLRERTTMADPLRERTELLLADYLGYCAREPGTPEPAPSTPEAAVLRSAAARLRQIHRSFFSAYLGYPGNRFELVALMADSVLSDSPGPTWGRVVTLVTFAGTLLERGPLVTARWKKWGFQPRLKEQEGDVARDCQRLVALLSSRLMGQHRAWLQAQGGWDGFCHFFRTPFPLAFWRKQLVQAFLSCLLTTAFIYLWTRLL

Bcl-2-like protein 1 = Bcl-2-like protein 1 (Homo sapiens, UniProt Q07817); assay: BCL-XL inhibitors, dose response, selectivity assay for MCL1 inhibitor project, biochemical, fluorescence polarization, 1536-well (AID 2218)
Sequence of Bcl-2-like protein 1 (Q07817 whole entry): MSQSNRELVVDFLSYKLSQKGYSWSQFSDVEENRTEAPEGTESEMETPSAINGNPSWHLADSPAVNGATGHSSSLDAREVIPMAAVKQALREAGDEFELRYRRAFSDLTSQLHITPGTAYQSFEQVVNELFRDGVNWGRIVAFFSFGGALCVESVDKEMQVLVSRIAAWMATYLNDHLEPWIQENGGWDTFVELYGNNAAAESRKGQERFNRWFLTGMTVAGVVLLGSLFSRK

[2] = molecular target: Photoreceptor-specific nuclear receptor (Homo sapiens, UniProt Q9Y5X4); format: functional;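 also: potency for compounds that break the NR2E3 corepressor complex and count as activators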
Sequence of Photoreceptor-specific nuclear receptor (Q9Y5X4 whole entry): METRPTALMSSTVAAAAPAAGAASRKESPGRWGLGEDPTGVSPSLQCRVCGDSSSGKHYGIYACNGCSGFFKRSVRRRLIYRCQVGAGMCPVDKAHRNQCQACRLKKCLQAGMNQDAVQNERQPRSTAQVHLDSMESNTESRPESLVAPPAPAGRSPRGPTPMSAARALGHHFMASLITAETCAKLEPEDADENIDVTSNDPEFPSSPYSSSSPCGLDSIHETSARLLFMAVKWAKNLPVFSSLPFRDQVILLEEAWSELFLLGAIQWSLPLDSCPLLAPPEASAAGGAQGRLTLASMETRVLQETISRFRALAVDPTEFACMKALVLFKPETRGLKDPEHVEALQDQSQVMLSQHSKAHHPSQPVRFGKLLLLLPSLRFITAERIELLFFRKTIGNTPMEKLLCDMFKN

[3] = molecular target: T2, Induced myeloid leukemia cell differentiation protein Mcl-1 (Homo sapiens, UniProt Q07820); format: functional
T2 sequence (Q07820 whole entry): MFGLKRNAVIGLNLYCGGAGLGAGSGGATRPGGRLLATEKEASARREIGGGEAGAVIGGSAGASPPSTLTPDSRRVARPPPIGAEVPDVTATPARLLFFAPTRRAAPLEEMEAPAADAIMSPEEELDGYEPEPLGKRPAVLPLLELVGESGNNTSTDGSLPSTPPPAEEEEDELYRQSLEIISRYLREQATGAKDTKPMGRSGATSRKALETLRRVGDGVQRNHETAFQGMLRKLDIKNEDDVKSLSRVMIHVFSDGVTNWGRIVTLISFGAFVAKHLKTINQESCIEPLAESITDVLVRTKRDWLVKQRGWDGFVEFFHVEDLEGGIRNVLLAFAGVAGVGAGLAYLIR

[4] = molecular target: T2, Induced myeloid leukemia cell differentiation protein Mcl-1; assay: MCL1-BIM BH3 interaction inhibitors, dose response, biochemical, fluorescence polarization, BIM-BH3 peptide, 1536-well (AID 2217)
[5] = C. albicans growth with fluconazole, confirmation, fluorescence, retest (AID 2467); format: functional, cell-based
HEK293 [6] = assay: cells; format: functional, cell-based; conditions: Homo sapiens
INS1 = assay: beta cell apoptosis inhibitors, cytokine rescue, dose response, luminescence, retest (AID 449756); format: functional, cell-based; conditions: Rattus norvegicus;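 also: cell death triggered by IL-1 beta plus TNF-alpha plus IFN-gamma mixture; protective hits raise ATP signal compared with cytokine alone wells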
Interleukin-8 [7] = molecular target: T3, Interleukin-8 (Homo sapiens, UniProt P10145); assay: SAR analysis of GM-Tri-DAP induced IL-8 secretion in MCF-7/NOD1 cells - Set 2. [Related pubchem assays (depositor defined):AID1575, AID1578, AID2333]; format: functional, cell-based
T3 sequence (P10145 whole entry): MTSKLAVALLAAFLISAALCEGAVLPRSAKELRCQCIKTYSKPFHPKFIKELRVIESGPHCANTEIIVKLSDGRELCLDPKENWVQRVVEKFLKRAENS

[8] = NIH-3T3 fibroblast cytotoxicity, dose response, cytotoxicity control, cell-based, fluorescence, Alamar Blue, secondary assay (AID 2327); format: functional;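 also: NIH-3T3 mouse fibroblasts cultured with fluconazole at 8 µg/mL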
[9] = cytotoxicity toward NIH3T3 fibroblasts, dose response, counter-screen, cell-based, ATP luminescence, mouse fibroblasts (AID 2010); format: functional;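 also: cells exposed to compound for about 90 hours before reading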
Vero [10] = assay: cells; format: functional, cell-based; conditions: Chlorocebus sabaeus
HEK293 [11] = assay: cells; format: functional, cell-based; conditions: Homo sapiens; remark: listed apart in the source
[12] = molecular target: T4, Nucleotide-binding oligomerization domain-containing protein 2 (Homo sapiens, UniProt Q9HC29); assay: NOD2 signaling inhibitors, cell-based, luminescence, uHTS, HEK293 (AID 1566); format: functional
T4 sequence (Q9HC29 whole entry, the tested form may be a part): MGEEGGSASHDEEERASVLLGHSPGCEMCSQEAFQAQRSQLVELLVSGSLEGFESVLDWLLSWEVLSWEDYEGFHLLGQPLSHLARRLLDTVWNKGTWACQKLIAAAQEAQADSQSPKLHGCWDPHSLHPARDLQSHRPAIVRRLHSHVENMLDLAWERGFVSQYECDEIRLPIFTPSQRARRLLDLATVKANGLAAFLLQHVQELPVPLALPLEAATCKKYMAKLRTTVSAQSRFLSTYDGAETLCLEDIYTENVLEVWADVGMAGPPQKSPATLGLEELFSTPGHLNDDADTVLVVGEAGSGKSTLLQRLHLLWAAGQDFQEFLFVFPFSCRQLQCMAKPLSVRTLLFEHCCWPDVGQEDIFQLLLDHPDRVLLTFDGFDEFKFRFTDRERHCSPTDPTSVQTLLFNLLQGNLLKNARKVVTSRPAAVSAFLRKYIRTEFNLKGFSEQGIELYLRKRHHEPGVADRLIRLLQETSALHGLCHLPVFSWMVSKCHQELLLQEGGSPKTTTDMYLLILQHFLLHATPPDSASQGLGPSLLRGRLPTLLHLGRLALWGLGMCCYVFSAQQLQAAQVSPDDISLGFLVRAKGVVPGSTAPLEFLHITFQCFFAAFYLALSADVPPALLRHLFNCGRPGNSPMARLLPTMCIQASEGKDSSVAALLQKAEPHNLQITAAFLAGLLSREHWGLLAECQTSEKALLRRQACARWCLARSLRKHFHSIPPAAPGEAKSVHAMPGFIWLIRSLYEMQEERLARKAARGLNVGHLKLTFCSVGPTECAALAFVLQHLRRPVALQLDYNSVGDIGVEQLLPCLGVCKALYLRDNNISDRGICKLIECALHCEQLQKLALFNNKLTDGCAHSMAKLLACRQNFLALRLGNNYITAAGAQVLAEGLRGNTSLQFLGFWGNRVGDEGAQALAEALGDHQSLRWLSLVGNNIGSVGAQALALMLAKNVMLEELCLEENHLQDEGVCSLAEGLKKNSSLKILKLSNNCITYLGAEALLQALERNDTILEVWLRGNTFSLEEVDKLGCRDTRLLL

HEK293 [13] = assay: cells; conditions: Homo sapiens
[14] = Luminescence-based counterscreen assay for KLF5 inhibitors: dose response cell-based high throughput screening assay to identify cytotoxic compounds using the IEC-6 intestinal epithelial cell line. [Related pubchem assays: 1700 (Primary screen.), 1834 (Confirmation screen.), 1858 (Summary AID.), 1905 (Counterscreen.)]; format: functional
[15] = Luminescence Cell-Based Dose Response HTS to Identify Inhibitors of 5'UTR Stem-Loop Driven Prion Protein mRNA Translation in H4 Neuroglioblastoma Cells. [Related pubchem assays: 1827 (Project Summary), 1813 (Primary HTS)]; format: functional
[16] = inhibitors of SNCA 5'UTR-driven reporter translation, confirmation, H4 neuroglioma cells, luminescence (AID 1988); format: functional, cell-based
Interleukin-8 [17] = molecular target: T3, Interleukin-8; assay: SAR analysis of Tumor necrosis factor alpha (TNF-alpha) induced IL-8 secretion in MCF-7/NOD1 cells - Set 2. [Related pubchem assays (depositor defined):AID1575, AID2250, AID2260]; format: functional, cell-based
[18] = inhibitors of intracellular T. cruzi replication, confirmation, NIH3T3 host cells, beta-gal luminescence (AID 2044); format: functional, cell-based;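 also: intracellular parasites grown in NIH/3T3 mouse fibroblasts as host cells; luminescent beta-galactosidase reporter signal from transgenic T. cruzi replicating inside host cells; inhibitors lower the luminescence signal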
[19] = inhibitors of firefly luciferase expression or activity, dose response, H4 neuroglioma cells, luminescence (AID 1990); format: functional, cell-based
HEK293 [20] = assay: NOD2 signaling inhibitors in MDP-stimulated cells, cell-based, uHTS, luminescence (AID 2001); format: functional; conditions: Homo sapiens
Paired box protein Pax-8 = Paired box protein Pax-8 (Homo sapiens, UniProt Q06710); assay: inhibitors of PAX8-driven TPO luciferase reporter, dose response, RMG-I cells, cherry-pick (AID 687027); format: functional, cell-based;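 also: luciferase reporter driven by Pax8 target thyroperoxidase promoter measured by SteadyGlo luminescence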
Sequence of Paired box protein Pax-8 (Q06710 whole entry): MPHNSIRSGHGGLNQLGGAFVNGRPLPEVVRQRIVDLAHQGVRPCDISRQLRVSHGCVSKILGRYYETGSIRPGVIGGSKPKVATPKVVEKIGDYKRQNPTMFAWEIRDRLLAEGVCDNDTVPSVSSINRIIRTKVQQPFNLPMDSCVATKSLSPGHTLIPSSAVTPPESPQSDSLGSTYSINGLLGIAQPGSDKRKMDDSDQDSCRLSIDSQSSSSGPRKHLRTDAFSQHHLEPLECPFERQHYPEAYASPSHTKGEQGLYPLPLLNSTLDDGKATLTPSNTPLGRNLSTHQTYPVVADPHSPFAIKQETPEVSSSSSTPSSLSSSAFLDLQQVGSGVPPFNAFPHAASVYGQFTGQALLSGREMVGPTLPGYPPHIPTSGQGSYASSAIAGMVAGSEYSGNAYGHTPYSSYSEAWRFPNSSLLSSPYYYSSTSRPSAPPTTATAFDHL

HEK293 [21] = assay: cells; format: functional, cell-based; conditions: Homo sapiens; remark: listed apart in the source
[22] = molecular target: T4, Nucleotide-binding oligomerization domain-containing protein 2; assay: PubChem AID 2334; format: functional
Tumor necrosis factor = Tumor necrosis factor (Homo sapiens, UniProt P01375); assay: TNFa-triggered NF-kB activation inhibitors, SAR follow-up, cell-based, revised (AID 2337); format: functional
Sequence of Tumor necrosis factor (P01375 whole entry): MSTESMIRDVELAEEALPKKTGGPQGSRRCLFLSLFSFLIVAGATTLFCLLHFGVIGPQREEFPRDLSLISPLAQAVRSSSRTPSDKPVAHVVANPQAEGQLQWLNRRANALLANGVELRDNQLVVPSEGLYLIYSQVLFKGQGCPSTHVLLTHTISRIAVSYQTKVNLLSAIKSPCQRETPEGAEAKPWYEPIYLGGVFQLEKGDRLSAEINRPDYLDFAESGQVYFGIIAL

Vero [23] = assay: cells; format: functional; conditions: Chlorocebus sabaeus
[24] = molecular target: T5, Nucleotide-binding oligomerization domain-containing protein 1 (Homo sapiens, UniProt Q9Y239); assay: NOD1 signaling inhibitors, SAR follow-up, revised (AID 2333); format: functional
T5 sequence (Q9Y239 whole entry): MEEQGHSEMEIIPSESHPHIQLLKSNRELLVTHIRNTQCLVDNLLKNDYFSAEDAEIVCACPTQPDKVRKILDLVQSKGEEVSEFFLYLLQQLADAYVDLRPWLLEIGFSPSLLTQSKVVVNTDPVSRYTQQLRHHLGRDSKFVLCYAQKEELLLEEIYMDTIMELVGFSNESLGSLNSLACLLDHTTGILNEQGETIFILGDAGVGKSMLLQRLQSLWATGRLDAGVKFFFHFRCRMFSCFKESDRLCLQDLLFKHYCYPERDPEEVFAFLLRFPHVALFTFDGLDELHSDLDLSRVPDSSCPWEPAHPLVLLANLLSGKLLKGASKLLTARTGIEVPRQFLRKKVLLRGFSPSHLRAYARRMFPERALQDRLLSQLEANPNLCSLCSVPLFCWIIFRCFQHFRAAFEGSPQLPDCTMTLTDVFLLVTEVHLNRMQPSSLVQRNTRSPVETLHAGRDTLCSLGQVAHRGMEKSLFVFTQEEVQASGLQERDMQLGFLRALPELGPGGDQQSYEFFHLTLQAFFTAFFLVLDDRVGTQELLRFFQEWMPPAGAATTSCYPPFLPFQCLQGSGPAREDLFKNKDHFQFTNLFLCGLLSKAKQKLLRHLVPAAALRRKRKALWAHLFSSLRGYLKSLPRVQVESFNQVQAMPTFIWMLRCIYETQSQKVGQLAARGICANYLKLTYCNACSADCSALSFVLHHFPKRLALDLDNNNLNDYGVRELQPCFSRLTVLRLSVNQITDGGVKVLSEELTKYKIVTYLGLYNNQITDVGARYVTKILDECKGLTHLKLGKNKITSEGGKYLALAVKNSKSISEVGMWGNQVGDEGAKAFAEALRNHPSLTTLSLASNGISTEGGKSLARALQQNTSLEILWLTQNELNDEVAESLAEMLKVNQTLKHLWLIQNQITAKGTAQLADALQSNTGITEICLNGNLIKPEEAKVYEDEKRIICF

HEK293 [25] = assay: NOD1 signaling inhibitors, primary screen, cell-based, luminescence, uHTS (AID 1578); format: functional; conditions: Homo sapiens
[26] = molecular target: Serine/threonine-protein phosphatase PP1-alpha catalytic subunit (Homo sapiens, UniProt P62136); assay: PP1 phosphatase inhibitors, dose response, biochemical, fluorescence (AID 2403);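 also: phosphatase turnover of OMFP into fluorescent 3-O-methylfluorescein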
Sequence of Serine/threonine-protein phosphatase PP1-alpha catalytic subunit (P62136 whole entry): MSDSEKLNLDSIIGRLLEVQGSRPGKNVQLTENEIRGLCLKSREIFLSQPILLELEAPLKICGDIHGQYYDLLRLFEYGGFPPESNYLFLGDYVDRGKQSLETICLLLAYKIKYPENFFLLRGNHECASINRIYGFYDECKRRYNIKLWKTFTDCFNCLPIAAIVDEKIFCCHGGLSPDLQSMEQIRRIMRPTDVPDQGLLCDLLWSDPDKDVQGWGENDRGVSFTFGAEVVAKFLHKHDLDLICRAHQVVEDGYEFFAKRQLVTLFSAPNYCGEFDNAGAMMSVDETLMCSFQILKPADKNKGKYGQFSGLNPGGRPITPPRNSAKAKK

Nonstructural protein 1 = Nonstructural protein 1 (Influenza A virus, UniProt Q194T2); format: functional, Influenza A virus (A/California/07/2009(H1N1))
Sequence of Nonstructural protein 1 (Q194T2 whole entry): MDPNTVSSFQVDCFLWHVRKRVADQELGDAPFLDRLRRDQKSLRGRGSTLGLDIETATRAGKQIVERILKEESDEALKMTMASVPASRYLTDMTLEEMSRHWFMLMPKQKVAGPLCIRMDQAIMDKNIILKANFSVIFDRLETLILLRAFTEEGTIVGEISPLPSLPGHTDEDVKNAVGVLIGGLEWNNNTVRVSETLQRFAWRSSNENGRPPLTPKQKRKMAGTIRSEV

[27] = molecular target: Serine/threonine-protein phosphatase (Homo sapiens, UniProt Q9BPW0); assay: Counterscreen for inhibitors of PP1: fluorescence-based biochemical high throughput dose response assay to identify inhibitors of Protein Phosphatase 5 (PP5). [Related pubchem assays: 2034 (Summary (PP5 inhibitors)), 1987 (PP5 inhibitors in singlate), 2235 (PP1 inhibitors in singlate)]
Sequence of Serine/threonine-protein phosphatase (Q9BPW0 whole entry): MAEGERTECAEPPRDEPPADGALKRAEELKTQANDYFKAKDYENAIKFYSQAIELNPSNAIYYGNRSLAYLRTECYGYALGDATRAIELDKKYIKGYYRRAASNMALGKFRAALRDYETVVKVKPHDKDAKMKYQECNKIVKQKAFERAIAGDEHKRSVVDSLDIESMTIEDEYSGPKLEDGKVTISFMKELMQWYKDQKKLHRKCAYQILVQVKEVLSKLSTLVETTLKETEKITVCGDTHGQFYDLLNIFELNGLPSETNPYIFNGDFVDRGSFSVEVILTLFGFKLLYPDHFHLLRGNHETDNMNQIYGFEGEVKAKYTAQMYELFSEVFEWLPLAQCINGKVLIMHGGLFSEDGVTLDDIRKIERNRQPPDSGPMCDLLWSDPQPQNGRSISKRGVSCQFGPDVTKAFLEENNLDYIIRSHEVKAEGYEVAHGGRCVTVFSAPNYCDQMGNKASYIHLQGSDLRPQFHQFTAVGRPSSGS

CCOC(=O)c1c(C)oc2cc(Br)c(O)c(Br)c12
active: IC50 (Staphylococcus aureus) 0.779 µM

Cc1ccc(-c2cc(C(=O)O)c3cc(Br)ccc3n2)o1
> 39.8 µM (not active): IC50 [2]
active: IC50 [1] 3.93 µM | EC50 (Bcl-2-like protein 10) 16.5 µM | IC50 [3] 2.98 µM
> 109 µM (not active): IC50 (Bcl-2-like protein 1)
27.9 µM (not active): IC50 [4]

Oc1ccc(N=Nc2ccccc2C(F)(F)F)c2cccnc12
inactive: IC50 (HEK293 [6]) > 20 µM | EC50 [8] > 160 µM | IC50 (HEK293 [11]) > 20 µM | EC50 [12] > 20 µM | IC50 (HEK293 [13]) > 20 µM | IC50 (Interleukin-8 [17]) > 25 µM | IC50 (HEK293 [20]) 4.21 µM | IC50 (HEK293 [21]) > 20 µM | IC50 [22] > 20 µM | IC50 [24] > 20 µM
active: EC50 [5] 1.57 µM | AC50 (INS1) 1.17 µM | IC50 (Interleukin-8 [7]) 19.8 µM | EC50 [9] 6.95 µM | IC50 (Vero [10]) > 25 µM | IC50 [14] 6.27 µM | EC50 [15] 1.08 µM | EC50 [16] 0.308 µM | EC50 [18] 0.633 µM | EC50 [19] 1.9 µM | AC50 (Paired box protein Pax-8) 4.15 µM | IC50 (Tumor necrosis factor) 7.03 µM | CC50 (Vero [23]) 4.62 µM | EC50 (HEK293 [25]) 3.71 µM

Cc1ccn2c(Nc3ccc4c(c3)OCO4)c(-c3ccccn3)nc2c1
active: IC50 [26] 6.76 µM | IC50 (Nonstructural protein 1) 11.5 µM
37.9 µM (not active): IC50 [27]
